According to patent US7947830B2, “Substituted propenyl piperazine derivatives as novel inhibitors of histone deacetylase” (Janssen Pharmaceutica N.V., priority 2004, dated 2011):
Like-named read-outs stand apart in the source and are kept apart here.

How the values were obtained:
[1] = tested on: p21 promoter reporter A2780 tumour in nude mice; test: p21 promoter induction in vivo method, tumour fluorescence (C.6.c); conditions: oral administration, daily during 6 days, 20-40 mpk
Experimental: Another method tests the capacity of compounds to induce p21 as the consequence of HDAC inhibition at the cellular level. […] The reporter gene is a fluorescent protein and the expression of the reporter gene is measured as the amount of fluorescent light emitted (see example C.6.b.). The last method is an in vivo method wherein mice are used for screening the pharmaceutical activity of a compound. The above described stably transformed tumour cells can be administered to mice in an amount sufficient to effect production of a tumour. After the tumour cells had sufficient time to form a tumour, a potentially active compound can be administered to the animals and the effect of said compound on the tumour cells is evaluated by measuring the expression of the reporter gene. Incubation with pharmaceutical active compounds will result in an increase of reporter gene expression compared to the control levels (see example C.6.c.)
A selected clone was injected subcutaneous (10^7 cells/200 μl) into the flank of nude mice and a calliper measurable tumour was obtained after 12 days. […] Tumours were evaluated for fluorescence by the in-house developed Automated Whole Body Imaging System (Fluorescent stereomicroscope type Olympus® SZX12 equipped with a GFP filter and coupled to a CCD camera type JAI® CV-M90 controlled by a software package based on the IMAQ Vision Software from National Instruments®). […]

[2] = not given; remark: listed apart in the source
[3] = target: histone deacetylase (HeLa nuclear extracts); test: In vitro assay for inhibition of histone deacetylase (HDAC Fluorescent Activity Assay, Fluor de Lys); assay type: biochemical; conditions: Fluor de Lys substrate
From the text: The in vitro assay for inhibition of histone deacetylase (see example C.1) measures the inhibition of HDAC enzymatic activity obtained with the compounds of formula (I).
The HDAC Fluorescent Activity Assay/Drug Discovery Kit of Biomol (cat.No: AK-500-0001) was used. The HDAC Fluorescent Activity Assay is based on the Fluor de Lys (Fluorogenic […] deAcetylase Lysyl) substrate and developer combination. The Fluor de Lys substrate, comprises an acetylated lysine side chain. Deacetylation of the substrate sensitizes the substrate so that, in the second step, treatment with the Fluor de Lys developer produces a fluorophore.
After 30 min, 1 volume of the developer was added. […] For each experiment, controls (containing HeLa nuclear extract and buffer), a blank incubation (containing buffer but no HeLa nuclear extract) and samples (containing compound dissolved in DMSO and further diluted in buffer and HeLa nuclear extract) were run in parallel. […] All sample were tested 4 times. In each test the blank value was substracted from both the control and the sample values. The control sample represented 100% of substrate deactylation. For each sample the fluorescence was expressed as a percentage of the mean value of the controls. […] Herein the effects of test compounds are expressed as pIC50 (the negative log value of the IC50-value) (see Table F-3).

[4] = tested on: A2780 ovarian carcinoma cells; test: Antiproliferative activity on A2780 cells (MTT); assay type: cell-based, human; conditions: Homo sapiens, A2780, 96 h, four days of incubation, read-out: Cellular activity pIC50 C.2. (converted)
Experimental: Cellular activity of the compounds of formula (I) was determined on A2780 tumour cells using a […] assay for cell toxicity or survival (Mosmann Tim, Journal of Immunological Methods 65: 55-63, 1983)(see example C.2).
All compounds tested were dissolved in DMSO and further dilutions were made in culture medium. Final DMSO concentrations never exceeded 0.1% (v/v) in cell proliferation assays. Controls contained A2780 cells and DMSO without compound and blanks contained DMSO but no cells. MTT was dissolved at 5 mg/ml in PBS. A glycine buffer comprised of 0.1 M glycine and 0.1 M NaCl buffered to pH 10.5 with NaOH (1 N) was prepared (all reagents were from Merck).
The human A2780 ovarian carcinoma cells (a kind gift from Dr. T. C. Hamilton [Fox Chase Cancer Centre, Pennsylvania, USA]) were cultured in RPMI 1640 medium supplemented with 2 mM L-glutamine, 50 μg/ml gentamicin and 10% fetal calf serum.
Cells were routinely kept as monolayer cultures at 37° C. in a humidified 5% CO2 atmosphere. Cells were passaged once a week using a trypsin/EDTA solution at a split ratio of 1:40. All media and supplements were obtained from Life Technologies. Cells were free of mycoplasma contamination as determined using the Gen-Probe Mycoplasma Tissue Culture kit (supplier: BioMérieux).
Cells were seeded in NUNC™ 96-well culture plates (Supplier: Life Technologies) and allowed to adhere to the plastic overnight. Densities used for plating were 1500 cells per well in a total volume of 200 μl medium. After cell adhesion to the plates, medium was changed and drugs and/or solvents were added to a final volume of 200 μl. Following four days of incubation, medium was replaced by 200 μl fresh medium and cell density and viability was assessed using an MTT-based assay. To each well, 25 μl […] solution was added and the cells were further incubated for 2 hours at 37° C. The medium was then carefully aspirated and the blue MTT-formazan product was solubilized by addition of 25 μl glycine buffer followed by 100 μl of DMSO. […] Within an experiment, the results for each experimental condition are the mean of 3 replicate wells. For initial screening purposes, compounds were tested at a single fixed concentration of 10^−6 M. For active compounds, the experiments were repeated to establish full concentration-response curves. For each experiment, controls (containing no drug) and a blank incubation (containing no cells or drugs) were run in parallel. The blank value was subtracted from all control and sample values. For each sample, the mean value for cell growth (in absorbance units) was expressed as a percentage of the mean value for cell growth of the control. […] Herein the effects of test compounds are expressed as pIC50 (the negative log value of the IC50-value)(see Table F-3).

[5] = Kinetic solubility in aqueous media (nephelometer, C.3.a); assay type: physicochemical; conditions: aqueous buffer, kinetic from dmso stock; score; phosphate citrate buffer pH 7.4, turbidity
Experimental: The solubility of a compound measures the ability of a compound to stay in solution. In a first method the ability of a compound to stay in aqueous solution upon dilution (see example C.3.a) is measured. DMSO-stock solutions are diluted with a single aqueous buffer solvent in 3 consecutive steps. For every dilution turbidity is measured with a nephelometer.
In the first dilution step, 10 μl of a concentrated stock-solution of the active compound, solubilized in DMSO (5 mM), was added to 100 μl phosphate citrate buffer pH 7.4 and mixed. In the second dilution step, an aliquot (20 μl) of the first dilution step was further dispensed in 100 μl phosphate citrate buffer pH 7.4 and mixed. Finally, in the third dilution step, a sample (20 μl) of the second dilution step was further diluted in 100 μl phosphate citrate buffer pH 7.4 and mixed. All dilutions were performed in 96-well plates. Immediately after the last dilution step the turbidity of the three consecutive dilution steps were measured with a nephelometer. Dilution was done in triplicate for each compound to exclude occasional errors. Based on the turbidity measurements a ranking is performed into 3 classes. Compounds with high solubility obtained a score of 3 and for this compounds the first dilution is clear. Compounds with medium solubility obtained a score of 2. For these compounds the first dilution is unclear and the second dilution is clear.

[6] = Metabolic stability with rat hepatocytes cell culture (C.5.b); assay type: in vitro ADME; conditions: 5 μM
From the text: Metabolism of drugs means that a lipid-soluble xenobiotic or endobiotic compound is enzymatically transformed into (a) polar, water-soluble, and excretable metabolite(s). The major organ for drug metabolism is the liver. […] However, some metabolites may have enhanced activity or toxic effects. Thus drug metabolism may include both “detoxication” and “toxication” processes. One of the major enzyme systems that determine the organism's capability of dealing with drugs and chemicals is represented by the cytochrome P450 monooxygenases, which are NADPH dependent enzymes. Metabolic stability of compounds can be determined in vitro with the use of subcellular human tissue (see example C.5.a.). Here metabolic stability of the compounds is expressed as % of drug metabolised after 15 minutes incubation of these compounds with microsomes. Quantitation of the compounds was determined by LC-MS analysis. Metabolic stability of compounds can also be determined by calculating the half live of compounds in rat hepatocyte cells (see example C.5.b.). […]
Samples were prepared for LC-MS by addition of two volumes of DMSO. […] Of the resulting supernatant 50 μl was analysed by LC-MS. […]
Total injection volume of samples was 50 μL. […] The mass spectrometer was operated in positive ion mode in SIM adjusted to the mass of M+H with a scan width of 1 Da for quantification purposes. […]

Compound	Enzymatic activity pIC50 C.1. [3]	IC50 [4] [nM]	solubility [5] [µM]	in vitro half-live [6] [min]	other results
COc1cc(N)c(Cl)cc1C(=O)NC1CCN(CCCOc2ccc(F)cc2)CC1OC (stereo not drawn) [Cisapride]					% metabolism (human, 15 min, 5 μM): 45%
O=C(NO)c1cnc(N2CCN(C(/C=C/c3ccccc3)CO)CC2)nc1 (stereo not drawn) [Compound 1]	8.2	12.6	> 455		tumour fluorescence ranked relative to R306465 [1]: better than R306465; melting point [2]: 187 °C
O=C(NO)c1cnc(N2CCN(C(/C=C/c3ccc(Cl)cc3)CO)CC2)nc1 (stereo not drawn) [Compound 4]	8.2	31.6	> 455	23	
O=C(NO)c1cnc(N2CCN(S(=O)(=O)c3ccc4ccccc4c3)CC2)nc1 [Compound R306465, reference compound]				8	
CCCO [propanol]					% metabolism (after 15 min incubation with active microsomes, compound 5 μM): 25%
